The values below come from ChEMBL document CHEMBL1201862, “PubChem BioAssay data set” (2004).

Some test systems named below: SK-MEL-5; TK-10; RPMI-8226; ACHN; HL-60; A549; SF-268; NCI-H522; SK-OV-3; NCI-H460; RXF 393; BT-549; MCF7; U-251; CAKI-1; OVCAR-5; MDA-MB-435; UACC-257; SK-MEL-2.
Common to all, as to test: NCI-60 cell line screen, 48 h

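Protocol summary: plate cells (96-well), add compound at 5 concentrations, incubate 48 h, interpolate endpoints linearly. The concentration for 50% growth inhibition is given as GI50.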 The source made the active and inactive calls. Rule as the data show it: active = GI50 up to about 1.1 µM and inactive = higher.

As to `N=C(N)NNC(=O)C(=O)O`, the GI50 in the assay with SK-MEL-5, in the assay on TK-10, in the assay on RPMI-8226, in the assay with ACHN, with HL-60 and with A549 was > 100 µM (inactive) each time. The GI50 was > 100 µM (inactive) in the assay on SF-268; > 100 µM (inactive) in the assay with NCI-H522; 55.1 µM (inactive) with SK-OV-3; > 100 µM (inactive) in the assay on NCI-H460; > 100 µM (inactive) with RXF 393; > 100 µM (inactive) with BT-549. The GI50 with MCF7, in the assay on U-251, in the assay on CAKI-1, with OVCAR-5, in the assay with MDA-MB-435 and in the assay with UACC-257 was > 100 µM (inactive) each time. Moreover, in the assay on SK-MEL-2, the GI50 is > 100 µM (inactive).
As for `COc1ccc2o/c(=N/c3ccccc3)c(C(N)=O)cc2c1`, the GI50 was > 100 µM (inactive) in the assay with SK-MEL-5; > 49.2 µM (inactive) in the assay with TK-10; > 100 µM (inactive) with RPMI-8226; 19 µM (inactive) in the assay on ACHN; > 100 µM (inactive) with HL-60; > 55.3 µM (inactive) in the assay on A549. Besides, the GI50 in the assay on SF-268 was 47.3 µM (inactive); in the assay with NCI-H522, > 54.8 µM (inactive); in the assay with SK-OV-3, 39.2 µM (inactive); in the assay with NCI-H460, > 100 µM (inactive); in the assay on RXF 393 it was 39.5 µM (inactive); in the assay on BT-549 it was 91 µM (inactive). Further, the GI50 is 45.9 µM (inactive) in the assay on MCF7; > 79.1 µM (inactive) in the assay on U-251; > 71.3 µM (inactive) in the assay on CAKI-1; > 100 µM (inactive) with OVCAR-5; 3.45 µM (inactive) in the assay on MDA-MB-435; > 100 µM (inactive) in the assay with UACC-257. In addition, the GI50 with SK-MEL-2 was > 100 µM (inactive).
For the molecule `COc1cc(OC)c2c(O)c3c(cc2c1)CC(C)(C)CC3=O`, the GI50 in the assay with SK-MEL-5 is > 100 µM (inactive); in the assay on TK-10, > 100 µM (inactive); with RPMI-8226 it was > 100 µM (inactive); in the assay with ACHN it was > 100 µM (inactive); in the assay with HL-60, > 32.7 µM (inactive); with A549, > 100 µM (inactive). In addition, the GI50 was > 100 µM (inactive) with SF-268; > 64.3 µM (inactive) in the assay with NCI-H522; > 100 µM (inactive) with SK-OV-3; > 100 µM (inactive) in the assay on NCI-H460; > 100 µM (inactive) in the assay on RXF 393; > 100 µM (inactive) in the assay with BT-549. The GI50 in the assay on MCF7 is > 100 µM (inactive); with U-251, 56.5 µM (inactive); in the assay on CAKI-1, > 100 µM (inactive); in the assay with OVCAR-5, > 100 µM (inactive); with MDA-MB-435, 19.4 µM (inactive); in the assay on UACC-257, > 100 µM (inactive). For the same molecule, the GI50 with SK-MEL-2 was > 100 µM (inactive).
Consider `N#CS/C(C(Cl)=C(Cl)Cl)=C(/Cl)[N+](=O)[O-]`, for which the GI50 in the assay on SK-MEL-5 is 2.53 µM (inactive); in the assay with TK-10, 2.23 µM (inactive); with RPMI-8226, 0.9 µM (active); with ACHN, 1.64 µM (inactive); with HL-60 it was 0.219 µM (active); with A549, 21 µM (inactive). Further, the GI50 was 3.17 µM (inactive) in the assay on SF-268; 1.04 µM (active) in the assay with NCI-H522; 17 µM (inactive) in the assay with SK-OV-3; 13.7 µM (inactive) with NCI-H460; 1.4 µM (inactive) in the assay on RXF 393; 2.24 µM (inactive) in the assay on BT-549. The GI50 is 3.9 µM (inactive) in the assay on MCF7; 14.1 µM (inactive) in the assay with U-251; 0.977 µM (active) in the assay with CAKI-1; 1.7 µM (inactive) in the assay with OVCAR-5; 1.66 µM (inactive) in the assay on MDA-MB-435; 1.75 µM (inactive) with UACC-257. In the assay on SK-MEL-2, the GI50 is 4.52 µM (inactive).
On to `CC(O)C1(O)C(O)CC(OC2c3cc4c(c(O)c3[C@@H]3C[C@@]2(C)OC32C=c3cc[nH]c3=N2)C(=O)c2cccc(O)c2C4=O)OC1C` (some centres undefined), for which the GI50 in the assay on SK-MEL-5 is 3.06 µM (inactive); in the assay on TK-10 it was 1.71 µM (inactive); with RPMI-8226 it was 0.948 µM (active); in the assay on ACHN it was 0.759 µM (active); in the assay on HL-60, 0.598 µM (active); with A549 it was 0.433 µM (active). In addition, the GI50 with SF-268 was 1.79 µM (inactive); with NCI-H522 it was 0.307 µM (active); with SK-OV-3 it was 1.75 µM (inactive); in the assay with NCI-H460 it was 0.401 µM (active); in the assay on RXF 393, 1.05 µM (active); with BT-549, 5.56 µM (inactive). Besides, the GI50 is 0.762 µM (active) in the assay with MCF7; 1.53 µM (inactive) in the assay with U-251; 1.33 µM (inactive) with CAKI-1; 3.08 µM (inactive) in the assay with OVCAR-5; 1.63 µM (inactive) in the assay on MDA-MB-435; 1.48 µM (inactive) in the assay with UACC-257. Further, the GI50 in the assay with SK-MEL-2 was 1.6 µM (inactive).
Take `C=C1C(=O)OC2/C=C(\CO)CC/C=C(\CO)CC(OC(=O)C(C)C)C12` (centres undefined): the GI50 in the assay on SK-MEL-5 was 19 µM (inactive); in the assay with TK-10 it was 3.94 µM (inactive); with RPMI-8226, 3.37 µM (inactive); with ACHN, 1.95 µM (inactive); in the assay with HL-60 it was 2.87 µM (inactive); in the assay with A549 it was 20.1 µM (inactive). For the same molecule, the GI50 in the assay with SF-268 was 13.9 µM (inactive); in the assay with NCI-H522 it was 1.56 µM (inactive); with SK-OV-3 it was 27.2 µM (inactive); with NCI-H460, 20.9 µM (inactive); in the assay on RXF 393, 5.83 µM (inactive); with BT-549, 7.94 µM (inactive). The GI50 is 2.66 µM (inactive) with MCF7; 18.1 µM (inactive) with U-251; 1.9 µM (inactive) in the assay on CAKI-1; 15.9 µM (inactive) with OVCAR-5; 8.75 µM (inactive) in the assay with MDA-MB-435; 12.2 µM (inactive) in the assay with UACC-257. Also, the GI50 with SK-MEL-2 was 16.5 µM (inactive).
Turning to `c1ccc2cc(OCC3CO3)c(OCC3CO3)cc2c1` (centres undefined), the GI50 in the assay on SK-MEL-5 was 9.23 µM (inactive); in the assay on TK-10, 12.1 µM (inactive); in the assay with RPMI-8226, 1.92 µM (inactive); with ACHN it was 2.18 µM (inactive); in the assay on HL-60, 1.53 µM (inactive); in the assay on A549, 3.68 µM (inactive). The GI50 in the assay with SF-268 was 0.891 µM (active); in the assay with NCI-H522, 1.87 µM (inactive); with SK-OV-3, 10.6 µM (inactive); in the assay with NCI-H460, 4.2 µM (inactive); in the assay on RXF 393 it was < 0.01 µM (active); in the assay on BT-549, 1.45 µM (inactive). In addition, the GI50 with MCF7 is 0.388 µM (active); in the assay on U-251, 2.9 µM (inactive); in the assay with CAKI-1 it was 4.09 µM (inactive); in the assay with OVCAR-5, 11.4 µM (inactive); in the assay with MDA-MB-435, 10.1 µM (inactive); in the assay with UACC-257, 10.2 µM (inactive). Besides, in the assay with SK-MEL-2, the GI50 is 10.9 µM (inactive).
Regarding `CCCC(Sc1nc(N)nc2nc[nH]c12)C(=O)O` (centres undefined), the GI50 in the assay on SK-MEL-5 is > 100 µM (inactive); with TK-10 it was 26.6 µM (inactive); in the assay on RPMI-8226, 35.2 µM (inactive); in the assay with ACHN it was > 100 µM (inactive); in the assay with HL-60 it was > 100 µM (inactive); in the assay on A549, > 100 µM (inactive). In addition, the GI50 is 46.8 µM (inactive) in the assay with SF-268; 49 µM (inactive) in the assay on NCI-H522; 58.3 µM (inactive) with SK-OV-3; 67 µM (inactive) in the assay on NCI-H460; 81.5 µM (inactive) in the assay on RXF 393; > 100 µM (inactive) in the assay on BT-549. Moreover, the GI50 with MCF7 was 62.4 µM (inactive); in the assay with U-251, > 100 µM (inactive); with CAKI-1, 41 µM (inactive); in the assay with OVCAR-5, 63.1 µM (inactive); in the assay with MDA-MB-435 it was 74.8 µM (inactive); with UACC-257, > 100 µM (inactive). Moreover, the GI50 in the assay on SK-MEL-2 is > 100 µM (inactive).
As for `Nc1nc(Sc2ccc([N+](=O)[O-])cn2)c2nc[nH]c2n1`, the GI50 in the assay with SK-MEL-5 is 14.4 µM (inactive); in the assay with TK-10, 9.08 µM (inactive); in the assay on RPMI-8226, 14 µM (inactive); with ACHN it was 12.3 µM (inactive); with HL-60 it was 10.7 µM (inactive); in the assay with A549, 15.1 µM (inactive). Further, the GI50 was 4.35 µM (inactive) in the assay on SF-268; 12.3 µM (inactive) with NCI-H522; 3.95 µM (inactive) with SK-OV-3; 4.88 µM (inactive) in the assay on NCI-H460; 2.73 µM (inactive) in the assay with RXF 393; 8.45 µM (inactive) with BT-549. Also, the GI50 in the assay on MCF7 was 5.89 µM (inactive); in the assay on U-251, 15.7 µM (inactive); in the assay with CAKI-1 it was 7.13 µM (inactive); in the assay with OVCAR-5 it was 3.47 µM (inactive); in the assay with MDA-MB-435 it was 4.79 µM (inactive); with UACC-257 it was 18 µM (inactive). Further, the GI50 in the assay on SK-MEL-2 is 2.47 µM (inactive).
For `C/C(=N\NC(=S)N(C)C)c1ccccn1`, the GI50 with SK-MEL-5 was 0.178 µM (active); in the assay on TK-10 it was 0.564 µM (active); in the assay with RPMI-8226, < 0.0379 µM (active); in the assay on ACHN it was < 0.0122 µM (active); in the assay with HL-60, < 0.01 µM (active); with A549 it was 0.0413 µM (active). In addition, the GI50 is < 0.0317 µM (active) in the assay on SF-268; 0.247 µM (active) in the assay with NCI-H522; < 0.0264 µM (active) in the assay with SK-OV-3; < 0.0156 µM (active) in the assay with NCI-H460; 0.41 µM (active) in the assay with RXF 393; 0.0111 µM (active) in the assay with BT-549. For the same molecule, the GI50 in the assay with MCF7 is < 0.01 µM (active); in the assay with U-251 it was < 0.01 µM (active); with CAKI-1 it was 0.186 µM (active); with OVCAR-5 it was 0.0373 µM (active); with MDA-MB-435 it was 0.221 µM (active); in the assay on UACC-257, < 0.01 µM (active). In addition, the GI50 in the assay on SK-MEL-2 was 0.139 µM (active).
In the case of `O=C(/C=C/c1ccc(O)c(O)c1)Oc1ccccc1`, the GI50 in the assay with SK-MEL-5 is 9.95 µM (inactive); with TK-10, 28.1 µM (inactive); with RPMI-8226, 3.17 µM (inactive); with ACHN it was 8.45 µM (inactive); in the assay on HL-60, 1.61 µM (inactive); in the assay on A549 it was 15.3 µM (inactive). For the same molecule, the GI50 in the assay on SF-268 is 7.59 µM (inactive); with NCI-H522, 0.304 µM (active); with SK-OV-3, 45.6 µM (inactive); with NCI-H460, 19.2 µM (inactive); in the assay with RXF 393, 8.71 µM (inactive); in the assay with BT-549 it was 14.9 µM (inactive). Further, the GI50 is 12.2 µM (inactive) with MCF7; 12.6 µM (inactive) in the assay on U-251; 5.85 µM (inactive) in the assay on CAKI-1; 28.7 µM (inactive) with OVCAR-5; 14.5 µM (inactive) in the assay on MDA-MB-435; 22.8 µM (inactive) in the assay on UACC-257. For the same molecule, in the assay on SK-MEL-2, the GI50 was 15.7 µM (inactive).
